Data on 8 compounds can be found in patent US11401278B2, “Macrocyclic indole derivatives” (The Broad Institute, Inc., priority 2017, dated 2022).

Data set [1] concerns AMO-1. As to the kind of experiment: Antiproliferation assay (Assay 7), AMO-1. The data set is classed as cell-based. Conditions: CellTiter-Glo, several values per example. The method, boiled down:
(§1)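 CellTiter-Glo luminescence readout; 72 h compound exposure, 37° C, humidified. Day 0 reference plate read at plating for time-zero baseline.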
(In ATP-based viability assays light output follows the ATP content of the culture.)

In data set [2] the test system is SUDHL10. As to the kind of experiment: Induction of caspase-3/7 activity (Assay 4), SUDHL10. The format is cell-based. Conditions: caspase-3/7 induction, median. In outline:
(§2)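 DLBCL cells were exposed to compounds for 3 hours at 37 °C, then caspase-3/7 activation was read with Caspase-Glo 3/7 reagent. After subtracting medium-only background, EC50s were derived with fixed C0=1 and the reference compound's maximal induction as plateau.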

In data set [3] the test system is SUDHL5. As to the kind of experiment: Antiproliferation assay (Assay 7), SUDHL5. The format is cell-based. Conditions: CellTiter-Glo, median, read-out: Antiproli SUDHL5 [M] (median) IC50. In outline: as §1
In data set [4] the test system is MV-4-11. As to the kind of experiment: Antiproliferation assay (Assay 7), MV-4-11. The format is cell-based. Conditions: CellTiter-Glo, several values per example. In outline:
as §1

In data set [5] the test system is SUDHL5. As to the kind of experiment: Induction of caspase-3/7 activity (Assay 4), SUDHL5. The format is cell-based. Conditions: caspase-3/7 induction, median. In outline:
as §2

The target of data set [6] is BCL-2 (Homo sapiens (Human), UniProt P10415). As to the kind of experiment: Protein-protein interaction assay BCL-2/Bad BH3 peptide (BCL-2 assay, TR-FRET). The data set is classed as binding. To be noted: His-BCL-2 / Bad BH3 peptide, median. The method, then: Assay 3 Protein-Protein Interaction Assay: BCL-2/Bad BH3 Peptide (BCL-2 Assay)
Chain of BCL-2 (P10415 other isoform, or with tags, fused parts or gaps): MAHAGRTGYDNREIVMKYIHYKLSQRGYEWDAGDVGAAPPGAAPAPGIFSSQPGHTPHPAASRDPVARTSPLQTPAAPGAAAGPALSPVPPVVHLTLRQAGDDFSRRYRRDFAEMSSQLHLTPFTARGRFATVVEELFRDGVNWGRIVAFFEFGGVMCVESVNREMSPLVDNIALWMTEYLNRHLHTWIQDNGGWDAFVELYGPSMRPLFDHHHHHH
The dose-dependent inhibition by the compounds described in this invention of the interaction between BCL-2 and the BH3 domain of Bad (both human) was determined using a steady state binding competition assay with time-resolved fluorescence energy transfer (TR-FRET) readout. For that purpose BCL-2 (amino acids 1-211, C-terminal fused to a hexahistidine (6×His) tag (SEQ ID 5) and a synthetic Bad BH3-derived peptide of sequence Biotin-PEG2-PEG2-NLWAAQRYGRELRR-Nle-SDEFVDSFKK-amide (SEQ ID 4) served as protein receptor and tracer ligand respectively. The recombinant BCL-2 protein (expressed in E. coli) was purchased from BPS Bioscience (San Diego, Calif., USA). The Bad BH3-derived peptide can be obtained from e.g. Biosyntan (Berlin, Germany).
In the assay 11 different concentrations of each compound (0.1 nM, 0.33 nM, 1.1 nM, 3.8 nM, 13 nM, 44 nM, 0.15 μM, 0.51 μM, 1.7 μM, 5.9 μM and 20 μM) were typically measured as duplicates in the same microtiter plate. For that, 100-fold concentrated DMSO solutions were prepared by serial dilutions (1:3.4) of a 2 mM stock solution in a clear, 384-well microtiter plate (Greiner Bio-One, Frickenhausen, Germany). From there, 50 nl were transferred in a dark test plate (Greiner Bio-One, Frickenhausen, Germany). The assay was initiated by addition of 2 μl of a 2.5-fold concentrated His-BCL-2 solution (usually for a 1 nM end concentration in 5 μl reaction volume) in aqueous assay buffer [50 mM Tris/HCl pH 7, 100 mM sodium chloride (NaCl), 50 mM potassium fluoride (KF), 0.005% Tween-20, 2 mM DTT, 0.1% bovine gamma globulin (BGG)] to the compounds in the assay plate. This was followed by a 10-minute incubation step at 22° C. for pre-equilibration of the putative complex between His-BCL-2 and the compounds. After that, 3 μl of a 1.67-fold concentrated solution (in assay buffer) consisting of Bad BH3-derived peptide (1 nM end concentration) and TR-FRET detection reagents [1.67 nM anti-His-Eu cryptate and 1.67 nM streptavidin-XL665 (both from Cisbio Bioassays, Codolet, France)], were added.
The mixture was incubated in the dark for one hour at 22° C. and then overnight at 4° C. The formation of BCL-2/Bad complexes was determined by measuring the resonance energy transfer of the anti-His-Eu-cryptate antibody to the streptavidin-XL665 present in the reaction. For that purpose, the fluorescence emission at 620 nm and 665 nm after excitation at 330-350 nm was measured in a TR-FRET measuring instrument, for instance a Rubystar or a Pherastar (both from BMG Lab Technologies, Offenburg, Germany) or a Viewlux (Perkin-Elmer). The ratio of the emission at 665 nm and at 622 nm was used as indicator of the amount of BCL-2/Bad complexes present.
The resulting data (ratio) were normalized, taking 0% inhibition as the mean value of control measurements (usually 32 data points) where all reagents were included. In this case 50 nl DMSO were used instead of compounds. A 100% inhibition corresponded to the mean value of control measurements (usually 32 data points) where all reagents except BCL-2 were included. IC50 values were determined by regression analysis based on a 4 parameter equation (minimum, maximum, IC50, Hill; Y=Max+(Min−Max)/(1+(X/IC50)^HiII) using the Screener Software (Genedata).

The test system of data set [7] is SUDHL10. As to the kind of experiment: Induction of cytotoxicity (Assay 6), SUDHL10. Conditions: read-out: Cytotox SUDHL10 [M] (median) IC50, CellTiter-Glo, 5 hours, SUDHL10.
[8] abbreviates: Homo sapiens, AMO1, 72 h, read-out: Antiproli AMO-1 [M] IC50.
Where [9] appears, read: Homo sapiens, MV4-11, 72 h, read-out: Antiproli MV-4-11 [M] IC50.

Like-named read-outs stand apart in the source and are kept apart here.

As for `Cc1cc(OCCCc2c(C(=O)O)n3c4c(c(F)ccc24)-c2c(nn(C)c2C)CN(C)S(=O)(=O)CCC3)cc(C)c1Cl` (racemic) [Example 28, (rac)-1-(3-(4-Chloro-3,5-dimethylphenoxy)propyl)-13-fluoro-8,11,12-trimethyl-5,6,9,11-tetrahydro-4H,8H-pyrazolo[3′,4′:4,5][1]thia[2,8]diazacycloundecino[6,7,8-hi]indole-2-carboxylic acid 7,7-dioxide], the half-maximal inhibitory concentration (IC50) (as a rule, the concentration that gives 50% inhibition) in data set [1] (setting [8]) was 1.2e-05 M; in data set [3] (Homo sapiens, SU-DHL-5, 72 h), 1.2e-06 M; in data set [4] (setting [9]) it was 7.54e-06 M; in data set [6] it was above 20000 nM; in data set [7] (Homo sapiens, SU-DHL10, 5 h), 8e-06 M. Moreover, the EC50 (as a rule, the concentration at which the effect is half-maximal) came to 11000 nM in data set [2] (Homo sapiens, SU-DHL10, 3 h) and 2000 nM in data set [5] (Homo sapiens, SU-DHL-5, 3 h).

Turning to `CCc1c2c(nn1C)CN(C)S(=O)(=O)CCCn1c(C(=O)O)c(CCCOc3cccc4cc(F)ccc34)c3ccc(F)c-2c31` (racemic) [Example 7, (rac)-12-Ethyl-13-fluoro-1-(3-((6-fluoronaphthalen-1-yl)oxy)propyl)-8,11-dimethyl-5,6,9,11-tetrahydro-4H,8H-pyrazolo[3′,4′:4,5][1]thia[2,8]diazacycloundecino[6,7,8-hi]indole-2-carboxylic acid 7,7-dioxide], the IC50 in data set [1] (72 hours, listed as 07, read-out: Antiproli AMO-1 [M] IC50) is 2.2e-06 M; in data set [1] (setting [8]), 2e-06 M; in data set [3] (Homo sapiens, SU-DHL-5, 72 h) it was 2.2e-07 M; in data set [4] (72 hours, listed as 07, read-out: Antiproli MV-4-11 [M] IC50), 2.15e-06 M; in data set [4] (setting [9]) it was 1.35e-06 M; in data set [6], 18000 nM. The IC50 in data set [7] (Homo sapiens, SU-DHL10, 5 h) came out at 9.1e-07 M. In addition, the EC50 worked out at 740 nM in data set [2] (Homo sapiens, SU-DHL10, 3 h) and 510 nM in data set [5] (Homo sapiens, SU-DHL-5, 3 h).

Regarding `CCc1c2c(nn1C)CN(C)S(=O)(=O)CCCn1c(C(=O)O)c(CCCOc3cccc4cc(F)ccc34)c3ccc(F)c-2c31` (single isomer, unassigned; enantiomer 2) [Example 9, (−)-3-Ethyl-4-fluoro-7-{3-[(6-fluoronaphthalen-1-yl)oxy]propyl}-2,14-dimethyl-13,13-dioxo-10,11,12,13,14,15-hexahydro-2H-13λ^6-pyrazolo[3′,4′:4,5][1,2,8]thiadiazacycloundecino-[6,7,8-hi]indole-8-carboxylic acid (Enantiomer 2)], the IC50 in data set [1] (72 hours, listed as 09, read-out: Antiproli AMO-1 [M] IC50) is above 3.3e-05 M; in data set [3] (72 hours), 1.4e-05 M; in data set [4] (72 hours, listed as 09, read-out: Antiproli MV-4-11 [M] IC50), 1.98e-05 M; in data set [6], above 20000 nM; in data set [7], above 3.3e-05 M. Further, the EC50 is above 33000 nM in data set [2] (3 hours) and 21000 nM in data set [5] (3 hours).

Turning to `CCc1c2c(nn1C)CN(C)S(=O)(=O)CCCn1c(C(=O)O)c(CCCOc3cc(C)c(Cl)c(C)c3)c3ccc(Cl)c-2c31` [Example 22, (rac)-13-Chloro-1-(3-(4-chloro-3,5-dimethylphenoxy)propyl)-12-ethyl-8,11-dimethyl-4,5,6,8,9,11-hexahydropyrazolo[3′,4′:4,5][1,2,8]thiadiazacycloundecino[6,7,8-hi]indole-2-carboxylic acid 7,7-dioxide], the IC50 in data set [1] (setting [8]) is 2.6e-06 M; in data set [3] (Homo sapiens, SU-DHL-5, 72 h), 1.9e-06 M; in data set [4] (setting [9]), 2.41e-06 M; in data set [6], above 20000 nM; in data set [7] (Homo sapiens, SU-DHL10, 5 h) it was 3.6e-06 M. Further, the EC50 in data set [2] (Homo sapiens, SU-DHL10, 3 h) came to 3300 nM; in data set [5] (Homo sapiens, SU-DHL-5, 3 h), 1800 nM.

In the case of `CCc1c2c(nn1C)CN(C)S(=O)(=O)CCCn1c(C(=O)O)c(CCCOc3cccc4c3CCCC4)c3ccc(Cl)c-2c31` [Example 23, (rac)-13-Chloro-12-ethyl-8,11-dimethyl-1-(3-((5,6,7,8-tetrahydronaphthalen-1-yl)oxy)propyl)-4,5,6,8,9,11-hexahydropyrazolo[3′,4′:4,5][1,2,8]thiadiazacycloundecino[6,7,8-hi]indole-2-carboxylic acid 7,7-dioxide], the IC50 was 3.8e-06 M in data set [1] (setting [8]); 6.9e-07 M in data set [3] (Homo sapiens, SU-DHL-5, 72 h); 1.96e-06 M in data set [4] (setting [9]); 15000 nM in data set [6]; 2.5e-06 M in data set [7] (Homo sapiens, SU-DHL10, 5 h). Also, the EC50 in data set [2] (Homo sapiens, SU-DHL10, 3 h) came to 2300 nM; in data set [5] (Homo sapiens, SU-DHL-5, 3 h) it was 1300 nM.

Take `Cc1c2c(nn1C)CN(C)S(=O)(=O)CCCn1c(C(=O)O)c(CCCOc3cccc4ccccc34)c3ccc(F)c-2c31` (racemic) [Example 26, (rac)-13-Fluoro-8,11,12-trimethyl-1-(3-(naphthalen-1-yloxy)propyl)-5,6,9,11-tetrahydro-4H,8H-pyrazolo[3′,4′:4,5][1]thia[2,8]diazacycloundecino[6,7,8-hi]indole-2-carboxylic acid 7,7-dioxide]: the IC50 in data set [1] (setting [8]) was 7.1e-06 M; in data set [3] (Homo sapiens, SU-DHL-5, 72 h) it was 1.4e-06 M; in data set [4] (setting [9]) it was 5.17e-07 M; in data set [6], above 20000 nM; in data set [7] (Homo sapiens, SU-DHL10, 5 h), 3.4e-06 M. Besides, the 50% effective concentration (EC50) was 3500 nM in data set [2] (Homo sapiens, SU-DHL10, 3 h) and 1300 nM in data set [5] (Homo sapiens, SU-DHL-5, 3 h).

Regarding `CCc1c2c(nn1C)CN(C)S(=O)(=O)CCCn1c(C(=O)O)c(CCCOc3cccc4ccccc34)c3ccc(F)c-2c31` (racemic) [Example 31, (rac)-12-Ethyl-13-fluoro-8,11-dimethyl-1-(3-(naphthalen-1-yloxy)propyl)-5,6,9,11-tetrahydro-4H,8H-pyrazolo[3′,4′:4,5][1]thia[2,8]diazacycloundecino[6,7,8-hi]indole-2-carboxylic acid 7,7-dioxide], the IC50 in data set [1] (72 hours, read-out: Antiproli AMO-1 [M] IC50) is 3.9e-06 M; in data set [1] (setting [8]), 4.2e-06 M; in data set [3] (Homo sapiens, SU-DHL-5, 72 h) it was 5.3e-07 M; in data set [4] (72 hours, read-out: Antiproli MV-4-11 [M] IC50), 5.51e-06 M; in data set [4] (setting [9]), 4.7e-06 M; in data set [6] it was above 20000 nM. The IC50 in data set [7] (Homo sapiens, SU-DHL10, 5 h) came to 1.9e-06 M. Also, the EC50 in data set [2] (Homo sapiens, SU-DHL10, 3 h) is 1900 nM; in data set [5] (Homo sapiens, SU-DHL-5, 3 h), 800 nM.

With `Cc1c2c(nn1C)CN(C)S(=O)(=O)CCCn1c(C(=O)O)c(CCCOc3ccc(F)c4ccccc34)c3ccc(F)c-2c31` [Example 30, (rac)-13-Fluoro-1-(34(4-fluoronaphthalen-1-yl)oxy)propyl)-8,11,12-trimethyl-5,6,9,11-tetrahydro-4H,8H-pyrazolo[3′,4′:4,5][1]thia[2,8]diazacycloundecino[6,7,8-hi]indole-2-carboxylic acid 7,7-dioxide], the 50% inhibitory concentration (IC50) in data set [1] (setting [8]) is 7e-06 M; in data set [3] (Homo sapiens, SU-DHL-5, 72 h), 1.4e-06 M; in data set [4] (setting [9]), 3.5e-06 M; in data set [6] it was above 20000 nM; in data set [7] (Homo sapiens, SU-DHL10, 5 h), 4.4e-06 M. Besides, the EC50 was 5600 nM in data set [2] (Homo sapiens, SU-DHL10, 3 h) and 1700 nM in data set [5] (Homo sapiens, SU-DHL-5, 3 h).
